Measurements: ChEMBL document CHEMBL2440076, “New triarylpyrazoles as broad-spectrum anticancer agents: design, synthesis, and biological evaluation” (Eur J Med Chem, 2013)

How the values were obtained:
HOP-92 = assay: Growth inhibition of human HOP92 cells assessed as cell growth at 5X10'-6 M after 48 hrs by sulforhodamine B assay; assay type: functional; details: HOP-92, 48 h, read-out: Activity
SF-539 = assay: Growth inhibition of human SF539 cells assessed as cell growth at 5X10'-7 M after 48 hrs by sulforhodamine B assay; assay type: functional; details: SF-539, 48 h, read-out: Activity
NCI-H23 [1] = assay: Growth inhibition of human NCI-H23 cells assessed as cell growth at 5X10'-9 M after 48 hrs by sulforhodamine B assay; assay type: functional; details: NCI-H23, 48 h, read-out: Activity
SK-OV-3 = assay: Growth inhibition of human SKOV3 cells after 48 hrs by sulforhodamine B assay; assay type: functional; details: SK-OV-3, 48 h; for CC50: read-out: LC50 (the source's name)
M14 [2] = assay: Growth inhibition of human M14 cells assessed as cell growth at 5X10'-8 M after 48 hrs by sulforhodamine B assay; assay type: functional; details: M14, 48 h, read-out: Activity
Malme-3M = assay: Growth inhibition of human MALME-3M cells assessed as cell growth at 5X10'-7 M after 48 hrs by sulforhodamine B assay; assay type: functional; details: read-out: Activity
SNB-19 [3] = assay: Growth inhibition of human SNB19 cells after 48 hrs by sulforhodamine B assay; assay type: functional; details: SNB-19, 48 h
CCRF-CEM = assay: Growth inhibition of human CCRF-CEM cells assessed as cell growth at 5X10'-9 M after 48 hrs by sulforhodamine B assay; assay type: functional; details: read-out: Activity
HT-29 [4] = assay: Growth inhibition of human HT-29 cells assessed as cell growth at 5X10'-6 M after 48 hrs by sulforhodamine B assay; assay type: functional; details: HT-29, 48 h, read-out: Activity
[5] = Growth inhibition of human Hs 578T cells assessed as cell growth at 5X10'-6 M after 48 hrs by sulforhodamine B assay; assay type: functional; details: read-out: Activity
PC-3 = assay: Growth inhibition of human PC3 cells after 48 hrs by sulforhodamine B assay; assay type: functional, cell-based; details: PC-3, 48 h; for CC50: read-out: LC50 (the source's name)
SN12C = assay: Growth inhibition of human SN12C cells assessed as cell growth at 5X10'-9 M after 48 hrs by sulforhodamine B assay; assay type: functional; details: read-out: Activity
KM12 = assay: Growth inhibition of human KM12 cells assessed as cell growth at 5X10'-9 M after 48 hrs by sulforhodamine B assay; assay type: functional; details: KM12, 48 h, read-out: Activity
HT-29 [6] = assay: Growth inhibition of human HT-29 cells after 48 hrs by sulforhodamine B assay; assay type: functional; details: HT-29, 48 h; for CC50: read-out: LC50 (the source's name)
HL-60(TB) = assay: Growth inhibition of human HL-60(TB) cells assessed as cell growth at 5X10'-8 M after 48 hrs by sulforhodamine B assay; assay type: functional; details: HL-60, 48 h, read-out: Activity
SK-MEL-2 = assay: Growth inhibition of human SK-MEL-2 cells assessed as cell growth at 5X10'-9 M after 48 hrs by sulforhodamine B assay; assay type: functional; details: SK-MEL-2, 48 h, read-out: Activity
NCI-H322M = assay: Growth inhibition of human NCI-H322M cells assessed as cell growth at 5X10'-6 M after 48 hrs by sulforhodamine B assay; assay type: functional; details: read-out: Activity
786-0 = assay: Growth inhibition of human 786-0 cells assessed as cell growth at 5X10'-9 M after 48 hrs by sulforhodamine B assay; assay type: functional; details: 786-0, 48 h, read-out: Activity
OVCAR-4 = assay: Growth inhibition of human OVCAR4 cells assessed as cell growth at 10 uM after 48 hrs by sulforhodamine B assay; assay type: functional; details: OVCAR-4, 48 h, read-out: Activity
U-251 = assay: Growth inhibition of human U251 cells assessed as cell growth at 5X10'-5 M after 48 hrs by sulforhodamine B assay; assay type: functional; details: U-251, 48 h, read-out: Activity
NCI-H23 [7] = assay: Growth inhibition of human NCI-H23 cells assessed as cell growth at 10 uM after 48 hrs by sulforhodamine B assay; assay type: functional; details: NCI-H23, 48 h, read-out: Activity
LOX IMVI = assay: Growth inhibition of human LOXIMVI cells assessed as cell growth at 10 uM after 48 hrs by sulforhodamine B assay; assay type: functional; details: read-out: Activity
[8] = Growth inhibition of human Hs 578T cells assessed as cell growth at 5X10'-5 M after 48 hrs by sulforhodamine B assay; assay type: functional; details: read-out: Activity
SK-MEL-5 = assay: Growth inhibition of human SK-MEL-5 cells assessed as cell growth at 10 uM after 48 hrs by sulforhodamine B assay; assay type: functional; details: SK-MEL-5, 48 h, read-out: Activity
MDA-MB-231 = assay: Growth inhibition of human MDA-MB-231 cells after 48 hrs by sulforhodamine B assay; assay type: functional; details: MDA-MB-231, 48 h
A498 = assay: Growth inhibition of human A498 cells assessed as cell growth at 5X10'-7 M after 48 hrs by sulforhodamine B assay; assay type: functional; details: A498, 48 h, read-out: Activity
M14 [9] = assay: Growth inhibition of human M14 cells assessed as cell growth at 10 uM after 48 hrs by sulforhodamine B assay; assay type: functional; details: M14, 48 h, read-out: Activity
NCI-H522 = assay: Growth inhibition of human NCI-H522 cells assessed as cell growth at 5X10'-5 M after 48 hrs by sulforhodamine B assay; assay type: functional; details: NCI-H522, 48 h, read-out: Activity
HCT-116 = assay: Growth inhibition of human HCT116 cells assessed as cell growth at 10 uM after 48 hrs by sulforhodamine B assay; assay type: functional; details: HCT-116, 48 h, read-out: Activity
MCF7 [10] = assay: Growth inhibition of human MCF7 cells assessed as cell growth at 5X10'-6 M after 48 hrs by sulforhodamine B assay; assay type: functional; details: MCF7, 48 h, read-out: Activity
NCI-H226 = assay: Growth inhibition of human NCI-H226 cells assessed as cell growth at 5X10'-6 M after 48 hrs by sulforhodamine B assay; assay type: functional; details: NCI-H226, 48 h, read-out: Activity
HT-29 [11] = assay: Growth inhibition of human HT-29 cells assessed as cell growth at 10 uM after 48 hrs by sulforhodamine B assay; assay type: functional; details: HT-29, 48 h, read-out: Activity
ACHN = assay: Growth inhibition of human ACHN cells assessed as cell growth at 5X10'-7 M after 48 hrs by sulforhodamine B assay; assay type: functional; details: read-out: Activity
OVCAR-5 = assay: Growth inhibition of human OVCAR5 cells assessed as cell growth at 5X10'-9 M after 48 hrs by sulforhodamine B assay; assay type: functional; details: OVCAR-5, 48 h, read-out: Activity
SNB-19 [12] = assay: Growth inhibition of human SNB19 cells assessed as cell growth at 5X10'-9 M after 48 hrs by sulforhodamine B assay; assay type: functional; details: SNB-19, 48 h, read-out: Activity
MCF7 [13] = assay: Growth inhibition of human MCF7 cells assessed as cell growth at 5X10'-7 M after 48 hrs by sulforhodamine B assay; assay type: functional; details: MCF7, 48 h, read-out: Activity

## O=C(Nc1cccc(-n2cc(-c3ccncc3)c(-c3ccc(Cl)c(O)c3)n2)c1)Nc1cc(C(F)(F)F)cc(C(F)(F)F)c1
HOP-92
  growth at 5 µM: -38%
SF-539
  growth at 0.5 µM: 82%
NCI-H23 [1]
  growth at 0.005 µM: 98%
SK-OV-3
  GI50: 1.35 µM
  TGI: 3.81 µM
  CC50: > 50 µM
M14 [2]
  growth at 0.05 µM: 104%
Malme-3M
  growth at 0.5 µM: 77%
SNB-19 [3]
  GI50: 0.983 µM
  LC50 (concentration killing 50% of cells): > 50 µM
  TGI: 8.96 µM
CCRF-CEM
  growth at 0.005 µM: 95%
HT-29 [4]
  growth at 5 µM: -54%
[5]
  growth at 5 µM: -8%
PC-3
  GI50: 0.319 µM
  IC50: 0.32 µM
  TGI: 4.37 µM
  CC50: > 50 µM
SN12C
  growth at 0.005 µM: 96%
KM12
  growth at 0.005 µM: 105%
HT-29 [6]
  GI50: 0.746 µM
  TGI: 1.87 µM
  CC50: 4.67 µM
HL-60(TB)
  growth at 0.05 µM: 122%
SK-MEL-2
  growth at 0.005 µM: 112%
NCI-H322M
  growth at 5 µM: 3%
786-0
  growth at 0.005 µM: 100%
OVCAR-4
  growth at 10 µM: 0.87%
U-251
  growth at 50 µM: -91%
NCI-H23 [7]
  growth at 10 µM: -7.93%
LOX IMVI
  growth at 10 µM: -94.1%
[8]
  growth at 50 µM: -40%
SK-MEL-5
  growth at 10 µM: -94.7%
MDA-MB-231
  GI50: 0.739 µM
  LC50: 3.72 µM
  TGI: 1.66 µM
A498
  growth at 0.5 µM: 64%
M14 [9]
  growth at 10 µM: -37.2%
NCI-H522
  growth at 50 µM: -82%
HCT-116
  growth at 10 µM: -59.1%
MCF7 [10]
  growth at 5 µM: 4%
NCI-H226
  growth at 5 µM: 6%
HT-29 [11]
  growth at 10 µM: -56%
ACHN
  growth at 0.5 µM: 55%
OVCAR-5
  growth at 0.005 µM: 96%
SNB-19 [12]
  growth at 0.005 µM: 90%
MCF7 [13]
  growth at 0.5 µM: 52%

## O=C(Nc1cccc(-n2cc(-c3ccncc3)c(-c3ccc(Cl)c(O)c3)n2)c1)c1ccc(N2CCOCC2)c(C(F)(F)F)c1
HOP-92
  growth at 5 µM: -7%
SF-539
  growth at 0.5 µM: 73%
NCI-H23 [1]
  growth at 0.005 µM: 93%
SK-OV-3
  GI50: 20 µM
  TGI: > 50 µM
  CC50: > 50 µM
M14 [2]
  growth at 0.05 µM: 94%
Malme-3M
  growth at 0.5 µM: 89%
SNB-19 [3]
  GI50: 4.11 µM
  LC50 (concentration killing 50% of cells): > 50 µM
  TGI: > 50 µM
CCRF-CEM
  growth at 0.005 µM: 98%
HT-29 [4]
  growth at 5 µM: 79%
[5]
  growth at 5 µM: 25%
PC-3
  GI50: 2.15 µM
  IC50: 2.15 µM
  TGI: > 50 µM
  CC50: > 50 µM
SN12C
  growth at 0.005 µM: 98%
KM12
  growth at 0.005 µM: 94%
HT-29 [6]
  GI50: 14.4 µM
  TGI: > 50 µM
  CC50: > 50 µM
HL-60(TB)
  growth at 0.05 µM: 117%
SK-MEL-2
  growth at 0.005 µM: 96%
NCI-H322M
  growth at 5 µM: 76%
786-0
  growth at 0.005 µM: 94%
OVCAR-4
  growth at 10 µM: 108%
U-251
  growth at 50 µM: -7%
NCI-H23 [7]
  growth at 10 µM: 61.3%
LOX IMVI
  growth at 10 µM: 9.98%
[8]
  growth at 50 µM: 8%
SK-MEL-5
  growth at 10 µM: 50.8%
MDA-MB-231
  GI50: 0.975 µM
  LC50: > 50 µM
  TGI: 15.6 µM
A498
  growth at 0.5 µM: 89%
M14 [9]
  growth at 10 µM: 22.7%
NCI-H522
  growth at 50 µM: -2%
HCT-116
  growth at 10 µM: 29.6%
MCF7 [10]
  growth at 5 µM: 41%
NCI-H226
  growth at 5 µM: 100%
HT-29 [11]
  growth at 10 µM: 98%
ACHN
  growth at 0.5 µM: 85%
OVCAR-5
  growth at 0.005 µM: 98%
SNB-19 [12]
  growth at 0.005 µM: 97%
MCF7 [13]
  growth at 0.5 µM: 78%
